Assay results as given in patent US10246429B2, “Vinyl fluoride cyclopropyl fused thiazin-2-amine compounds as beta-secretase inhibitors and methods of use” (AMGEN INC., priority 2015, dated 2019).

How the values were obtained:
Cathepsin D (CatD) = Cathepsin D (CatD) (Homo sapiens (Human), UniProt P07339); test: CatD assay; assay type: biochemical; conditions: read-out: IC50 IP (μM) CatD
BACE1 [1] = target: T1, BACE1 (Homo sapiens (Human), UniProt P56817); test: In vitro enzymatic BACE1 FRET assay; assay type: biochemical; conditions: read-out: IC50 IP (μM) BACE1 Enzyme
Target sequence in this assay (P56817 46-501): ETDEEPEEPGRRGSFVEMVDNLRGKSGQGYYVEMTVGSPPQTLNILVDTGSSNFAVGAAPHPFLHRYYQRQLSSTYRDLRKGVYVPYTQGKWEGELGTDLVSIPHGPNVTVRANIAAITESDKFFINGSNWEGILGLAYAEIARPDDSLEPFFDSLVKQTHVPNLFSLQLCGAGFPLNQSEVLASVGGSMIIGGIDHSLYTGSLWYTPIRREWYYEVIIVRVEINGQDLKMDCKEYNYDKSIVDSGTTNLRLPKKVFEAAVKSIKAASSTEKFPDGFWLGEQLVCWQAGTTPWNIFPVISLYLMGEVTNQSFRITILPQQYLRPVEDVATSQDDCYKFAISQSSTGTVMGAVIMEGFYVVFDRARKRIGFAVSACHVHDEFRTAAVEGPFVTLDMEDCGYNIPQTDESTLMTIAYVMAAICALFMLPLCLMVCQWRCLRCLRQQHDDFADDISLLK
From the text: (§1) In Vitro Enzymatic BACE1 and BACE2 FRET (Fluorescence Resonance Energy Transfer) Assays (Enzyme Assay Data in Table 1)

BACE1 [2] = target: T1, BACE1; test: BACE1 cell assay; assay type: cell-based
Target sequence in this assay (P56817 46-501, species assumed): as the sequence (P56817 46-501) above

BACE2 = BACE2 (Homo sapiens (Human), UniProt Q9Y5Z0); test: In vitro enzymatic BACE2 FRET assay; assay type: biochemical; conditions: read-out: IC50 IP (μM) BACE2 Enzyme
From the text: as §1

[3] = read-out: IC50 IP (μM) BACE1 Cell

Cathepsin D (CatD), sequence (P07339 65-412, species assumed): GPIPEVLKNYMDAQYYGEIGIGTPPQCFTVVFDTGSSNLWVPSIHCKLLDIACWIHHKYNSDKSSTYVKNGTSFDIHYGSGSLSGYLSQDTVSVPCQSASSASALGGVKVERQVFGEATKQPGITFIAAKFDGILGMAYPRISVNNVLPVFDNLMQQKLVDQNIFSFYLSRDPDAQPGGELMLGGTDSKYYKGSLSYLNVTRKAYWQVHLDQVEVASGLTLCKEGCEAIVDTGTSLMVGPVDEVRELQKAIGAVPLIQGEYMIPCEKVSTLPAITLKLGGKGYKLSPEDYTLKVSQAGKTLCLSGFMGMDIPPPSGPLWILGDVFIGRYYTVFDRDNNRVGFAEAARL
BACE2, sequence (Q9Y5Z0 63-518): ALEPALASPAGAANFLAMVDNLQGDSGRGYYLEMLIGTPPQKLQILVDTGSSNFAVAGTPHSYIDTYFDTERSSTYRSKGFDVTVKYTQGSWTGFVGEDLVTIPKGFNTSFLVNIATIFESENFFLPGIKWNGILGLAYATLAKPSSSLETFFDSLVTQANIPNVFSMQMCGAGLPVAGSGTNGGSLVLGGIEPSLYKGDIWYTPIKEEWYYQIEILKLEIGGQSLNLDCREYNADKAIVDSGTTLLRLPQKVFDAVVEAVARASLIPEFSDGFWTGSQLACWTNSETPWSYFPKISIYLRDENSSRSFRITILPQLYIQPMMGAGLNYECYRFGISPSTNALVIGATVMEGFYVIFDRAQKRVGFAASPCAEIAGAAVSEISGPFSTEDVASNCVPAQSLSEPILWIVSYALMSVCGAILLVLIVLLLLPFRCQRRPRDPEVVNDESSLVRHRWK

Row | Compound | IC50 (Cathepsin D (CatD)) | IC50 (BACE1 [1]) | IC50 (BACE1 [2]) | IC50 (BACE2) | IC50 (BACE1 [2]; [3])
1 | CN(C)C(=O)[C@]12C[C@H]1[C@@](C)(c1cc(/C(F)=C/c3ccc(Cl)cn3)ccc1F)N=C(N)S2 [Example 185, (1S,5S,6S)-3-amino-5-(5-((Z)-2-(5-chloropyridin-2-yl)-1-fluorovinyl)-2-fluorophenyl)-N,N,5-trimethyl-2-thia-4-azabicyclo[4.1.0]hept-3-ene-1-carboxamide] | 172 µM | 0.132 µM | 0.695 µM | 0.0764 µM | –
2 | CN(C)C(=O)[C@]12C[C@H]1[C@@](C)(c1cc(/C(F)=C/c3ccc(C#N)cc3)ccc1F)N=C(N)S2 [Example 186, (1S,5S,6S)-3-amino-5-(5-((Z)-2-(4-cyanophenyl)-1-fluorovinyl)-2-fluorophenyl)-N,N,5-trimethyl-2-thia-4-azabicyclo[4.1.0]hept-3-ene-1-carboxamide] | 48.7 µM | 0.128 µM | – | 0.302 µM | 0.575 µM
3 | C[C@]1(c2cc(/C=C(\F)c3cnc(C#N)cn3)ccc2F)N=C(N)S[C@@]2(C(=O)N3CCCCC3)C[C@H]21 [Example 201, 5-((Z)-2-(3-((1S,5S,6S)-3-amino-5-methyl-1-(piperidine-1-carbonyl)-2-thia-4-azabicyclo[4.1.0]hept-3-en-5-yl)-4-fluorophenyl)-1-fluorovinyl)pyrazine-2-carbonitrile] | 16.7 µM | 0.001 µM | – | 0.074 µM | 0.009 µM
4 | C#Cc1cnc(/C(F)=C/c2ccc(F)c([C@@]3(C)N=C(N)S[C@@]4(C(=O)N(C)C)C[C@H]43)c2)cn1 [Example 205, (1S,5S,6S)-3-amino-5-(5-((Z)-2-(5-ethynylpyrazin-2-yl)-2-fluorovinyl)-2-fluorophenyl)-N,N,5-trimethyl-2-thia-4-azabicyclo[4.1.0]hept-3-ene-1-carboxamide] | 113 µM | 0.002 µM | 0.569 µM | 0.01 µM | –
5 | CN(C)C(=O)[C@]12C[C@H]1[C@@](C)(c1cc(/C=C(\F)I)ccc1F)N=C(N)S2 [Example 206, (1S,5S,6S)-3-amino-5-(2-fluoro-5-((E)-2-fluoro-2-iodovinyl)phenyl)-N,N,5-trimethyl-2-thia-4-azabicyclo[4.1.0]hept-3-ene-1-carboxamide] | 12.2 µM | 0.01 µM | – | 0.008 µM | 0.093 µM
6 | CN(C)C(=O)[C@]12C[C@H]1[C@@](C)(c1cc(/C=C(\F)C#Cc3ccccc3)ccc1F)N=C(N)S2 [Example 207, (1S,5S,6S)-3-amino-5-(2-fluoro-5-((Z)-2-fluoro-4-phenylbut-1-en-3-yn-1-yl)phenyl)-N,N,5-trimethyl-2-thia-4-azabicyclo[4.1.0]hept-3-ene-1-carboxamide] | 14.6 µM | 0.005 µM | – | 0.018 µM | 0.335 µM
7 | CC#C/C(F)=C/c1ccc(F)c([C@@]2(C)N=C(N)S[C@@]3(C(=O)N(C)C)C[C@H]32)c1 [Example 209, (1S,5S,6S)-3-amino-5-(2-fluoro-5-((Z)-2-fluoropent-1-en-3-yn-1-yl)phenyl)-N,N,5-trimethyl-2-thia-4-azabicyclo[4.1.0]hept-3-ene-1-carboxamide] | 56 µM | 0.094 µM | – | 0.01 µM | 0.324 µM
8 | COCCOc1cnc(/C(F)=C/c2ccc(F)c([C@@]3(C)N=C(N)S[C@@]4(C(=O)N(C)C)C[C@H]43)c2)cn1 [Example 210, (1S,5S,6S)-3-amino-5-(2-fluoro-5-((Z)-2-fluoro-2-(5-(2-methoxyethoxy)pyrazin-2-yl)vinyl)phenyl)-N,N,5-trimethyl-2-thia-4-azabicyclo[4.1.0]hept-3-ene-1-carboxamide] | 159 µM | 0.011 µM | 0.007 µM | 0.072 µM | –
9 | CN(C)C(=O)[C@]12C[C@H]1[C@@](C)(c1cc(/C=C(\F)c3cnc(OCC4CC4)cn3)ccc1F)N=C(N)S2 [Example 211, (1S,5S,6S)-3-amino-5-(5-((Z)-2-(5-(cyclopropylmethoxy)pyrazin-2-yl)-2-fluorovinyl)-2-fluorophenyl)-N,N,5-trimethyl-2-thia-4-azabicyclo[4.1.0]hept-3-ene-1-carboxamide] | 67.8 µM | 0.022 µM | – | 0.044 µM | 0.247 µM
10 | CN(C)C(=O)[C@]12C[C@H]1[C@@](C)(c1cc(/C=C(\F)c3cnc(OCC4COC4)cn3)ccc1F)N=C(N)S2 [Example 212, (1S,5S,6S)-3-amino-5-(2-fluoro-5-((Z)-2-fluoro-2-(5-(oxetan-3-ylmethoxy)pyrazin-2-yl)vinyl)phenyl)-N,N,5-trimethyl-2-thia-4-azabicyclo[4.1.0]hept-3-ene-1-carboxamide] | 202 µM | 0.076 µM | – | 0.077 µM | 0.065 µM
11 | CN(C)C(=O)[C@]12C[C@H]1[C@@](C)(c1cc(/C=C(\F)c3cnc(OCC(F)F)cn3)ccc1F)N=C(N)S2 [Example 213, (1S,5S,6S)-3-amino-5-(5-((Z)-2-(5-(2,2-difluoroethoxy)pyrazin-2-yl)-2-fluorovinyl)-2-fluorophenyl)-N,N,5-trimethyl-2-thia-4-azabicyclo[4.1.0]hept-3-ene-1-carboxamide] | 103 µM | 0.021 µM | – | 0.065 µM | 0.039 µM
12 | COC[C@H](C)Oc1cnc(/C(F)=C/c2ccc(F)c([C@@]3(C)N=C(N)S[C@@]4(C(=O)N(C)C)C[C@H]43)c2)cn1 [Example 214, (1S,5S,6S)-3-amino-5-(2-fluoro-5-((Z)-2-fluoro-2-(5-(((S)-1-methoxypropan-2-yl)oxy)pyrazin-2-yl)vinyl)phenyl)-N,N,5-trimethyl-2-thia-4-azabicyclo[4.1.0]hept-3-ene-1-carboxamide] | 134 µM | 0.014 µM | – | 0.072 µM | 0.024 µM
13 | CN(C)C(=O)[C@]12C[C@H]1[C@@](C)(c1cc(/C=C(\F)c3cnc(OCC4CC4(F)F)cn3)ccc1F)N=C(N)S2 (stereo partly drawn) [Example 215, (1S,5S,6S)-3-amino-5-(5-((Z)-2-(5-((2,2-difluorocyclopropyl)methoxy)pyrazin-2-yl)-2-fluorovinyl)-2-fluorophenyl)-N,N,5-trimethyl-2-thia-4-azabicyclo[4.1.0]hept-3-ene-1-carboxamide] | 121 µM | 0.037 µM | – | 0.051 µM | 0.262 µM
14 | Cc1nnc(COc2cnc(/C(F)=C/c3ccc(F)c([C@@]4(C)N=C(N)S[C@@]5(C(=O)N(C)C)C[C@H]54)c3)cn2)o1 [Example 216, (1S,5S,6S)-3-amino-5-(2-fluoro-5-((Z)-2-fluoro-2-(5-((5-methyl-1,3,4-oxadiazol-2-yl)methoxy)pyrazin-2-yl)vinyl)phenyl)-N,N,5-trimethyl-2-thia-4-azabicyclo[4.1.0]hept-3-ene-1-carboxamide] | 391 µM | 0.007 µM | – | 0.072 µM | 0.005 µM
15 | Cc1noc(COc2cnc(/C(F)=C/c3ccc(F)c([C@@]4(C)N=C(N)S[C@@]5(C(=O)N(C)C)C[C@H]54)c3)cn2)n1 [Example 217, (1S,5S,6S)-3-amino-5-(2-fluoro-5-((Z)-2-fluoro-2-(5-((3-methyl-1,2,4-oxadiazol-5-yl)methoxy)pyrazin-2-yl)vinyl)phenyl)-N,N,5-trimethyl-2-thia-4-azabicyclo[4.1.0]hept-3-ene-1-carboxamide] | 438 µM | 0.002 µM | – | 0.07 µM | 0.002 µM
16 | Cc1cc(COc2cnc(/C(F)=C/c3ccc(F)c([C@@]4(C)N=C(N)S[C@@]5(C(=O)N(C)C)C[C@H]54)c3)cn2)on1 [Example 218, (1S,5S,6S)-3-amino-5-(2-fluoro-5-((Z)-2-fluoro-2-(5-((3-methylisoxazol-5-yl)methoxy)pyrazin-2-yl)vinyl)phenyl)-N,N,5-trimethyl-2-thia-4-azabicyclo[4.1.0]hept-3-ene-1-carboxamide] | 156 µM | 0.01 µM | 0.04 µM | 0.033 µM | –
17 | CN(C)C(=O)[C@]12C[C@H]1[C@@](C)(c1cc(/C=C(\F)c3ncc(C#N)s3)ccc1F)N=C(N)S2 [Example 219, (1S,5S,6S)-3-amino-5-(5-((Z)-2-(5-cyanothiazol-2-yl)-2-fluorovinyl)-2-fluorophenyl)-N,N,5-trimethyl-2-thia-4-azabicyclo[4.1.0]hept-3-ene-1-carboxamide] | 110 µM | 0.004 µM | – | 0.007 µM | 0.005 µM
18 | CN(C)C(=O)[C@]12C[C@H]1[C@@](C)(c1cc(/C=C(\F)c3ccc(C#N)s3)ccc1F)N=C(N)S2 [Example 220, (1S,5S,6S)-3-amino-5-(5-((Z)-2-(5-cyanothiophen-2-yl)-2-fluorovinyl)-2-fluorophenyl)-N,N,5-trimethyl-2-thia-4-azabicyclo[4.1.0]hept-3-ene-1-carboxamide] | 26.4 µM | 0.011 µM | – | 0.002 µM | 0.022 µM
19 | CN(C)C(=O)[C@]12C[C@H]1[C@@](C)(c1cc(/C(F)=C/c3ccc(C#N)cc3)ccc1F)N=C(N)S2 [Example 221, (1S,5S,6S)-3-amino-5-(5-((Z)-2-(4-cyanophenyl)-1-fluorovinyl)-2-fluorophenyl)-N,N,5-trimethyl-2-thia-4-azabicyclo[4.1.0]hept-3-ene-1-carboxamide] | 48.6 µM | 0.128 µM | 0.575 µM | 0.302 µM | –
20 | CNC(=O)[C@]12C[C@H]1[C@@](C)(c1cc(/C=C(\F)c3ccc(C(F)(F)F)cn3)ccc1F)N=C(N)S2 [Example 224, (1S,5S,6S)-3-amino-5-(2-fluoro-5-((Z)-2-fluoro-2-(5-(trifluoromethyl)pyridin-2-yl)vinyl)phenyl)-N,5-dimethyl-2-thia-4-azabicyclo[4.1.0]hept-3-ene-1-carboxamide] | 396 µM | 0.015 µM | 0.031 µM | 0.564 µM | –
